The record followed here is PMC3563422 (Bioorganic & medicinal chemistry, 2012).

Holding throughout (format): biochemical
In one assay the target is DENV2 NS2B/NS3pro (Dengue virus type 2, UniProt P14340). Nature of the assay: In vitro DENV2 NS2B/NS3pro protease inhibition assay. The following applies: screened at 25 μM.
The target of assay [1] is T1, WNV NS2B/NS3pro (West Nile virus, UniProt Q9Q6P4). Briefly: In vitro WNV NS2B/NS3pro protease inhibition assay. The following applies: screened at 25 μM.
T1 sequence (Q9Q6P4 1506-1683): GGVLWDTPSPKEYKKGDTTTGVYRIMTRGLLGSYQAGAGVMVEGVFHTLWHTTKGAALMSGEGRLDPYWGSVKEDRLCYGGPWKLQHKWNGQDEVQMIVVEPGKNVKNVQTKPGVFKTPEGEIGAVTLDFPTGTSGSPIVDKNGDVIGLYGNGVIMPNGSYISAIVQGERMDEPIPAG
The target in the next assay is Dengue virus protease (Dengue virus type 2, UniProt P14340). Nature of the assay: Kinetics analysis of DENV NS2B/NS3pro inhibition.
Chain of Dengue virus protease (P14340 1476-1653): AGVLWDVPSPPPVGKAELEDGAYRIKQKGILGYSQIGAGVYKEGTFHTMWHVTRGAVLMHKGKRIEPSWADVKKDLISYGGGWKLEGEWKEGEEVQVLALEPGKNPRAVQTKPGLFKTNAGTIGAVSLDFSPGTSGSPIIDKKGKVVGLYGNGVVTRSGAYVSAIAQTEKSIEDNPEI
For assay [2], the target named is T1, WNV NS2B/NS3pro. Nature of the assay: Kinetics analysis of WNV NS2B/NS3pro inhibition. The following applies: for kcat of tetra-peptide substrate: 37 °C, WNV NS2B/NS3pro 28 nM.

Chain of DENV2 NS2B/NS3pro (P14340 1476-1653): as above

Regarding `O=C(NCc1cn(Cc2ccccc2)nn1)Nc1cccc(C(=O)Nc2cccc(Oc3ccccc3)c2)c1` [Compound 8f], the “activity against DENV NS2B/NS3pro (screen)” value on DENV2 NS2B/NS3pro is “inactive”. Besides, the “activity against WNV NS2B/NS3pro (screen)” value at WNV NS2B/NS3pro [1] is “inactive”.

As to `O=C(NCc1cn(CSc2ccccc2)nn1)Nc1ccc(C(=O)Nc2ccc(Oc3ccccc3)cc2)cc1` [Compound 7a], the “activity against DENV NS2B/NS3pro (screen)” value on DENV2 NS2B/NS3pro was “inactive”. On WNV NS2B/NS3pro [1], the “activity against WNV NS2B/NS3pro (screen)” value is “inactive”.

Take `O=C(NCc1cn(Cc2ccc(F)cc2)nn1)Nc1ccc(C(=O)Nc2ccc(Oc3ccccc3)cc2)cc1` [Compound 7n]: the Ki (commonly the equilibrium dissociation constant of an inhibitor or competing ligand from its target) on Dengue virus protease was 8.77 µM; on WNV NS2B/NS3pro [2], 5.55 µM. Further, the “mode of inhibition of Dengue virus protease” value at Dengue virus protease (from kinetics data) was “competitive”. The entries for the “kcat of tetra-peptide substrate” value on WNV NS2B/NS3pro [2] ([7n] = 1 μM), on WNV NS2B/NS3pro [2] ([7n] = 3 μM) and at WNV NS2B/NS3pro [2] ([7n] = 5 μM) were 0.059 ± 0.0014 s⁻¹, 0.062 ± 0.0018 s⁻¹ and 0.055 ± 0.0020 s⁻¹, respectively. For the same molecule, the “mode of inhibition of West Nile virus protease” value at WNV NS2B/NS3pro [2] (from kinetics data) was “competitive”.
